# Test system: promoter of the gene for collagenase 1
# Test: Inhibition of PMA-induced activity of the collagenase 1 promoter (CAT reporter, CAT-Elisa) in transfected HeLa cells
# Assay type: cell-based
# Details: conclusion in words from the Table, PMA induction
# Protocol: The activity of a lycopene-rich tomato extract (LycOMato® marketed by Metaphar) was studied on HeLa cells transfected with an expression vector encoding a portion of the promoter of collagenase cloned upstream of the gene for chloramphenicol acetyltransferase (CAT).
# The study made it possible to evaluate the effectiveness of a product in inhibiting the induction of the transcription of the gene for collagenase by phorbol 12-myristate 13-acetate (PMA).
# The test was carried out on HeLa cells (ATCC CCL2), into which had been introduced the promoter of the gene for collagenase 1 (3.8 kB) cloned upstream of the gene for chloramphenicol acetyltransferase (CAT).
# The cells were exposed to PMA at a concentration of 10 nM for 24 hours.
# Before administration of PMA, the cells were contacted for 2 hours with lycopene (LycOMato® marketed by Metaphar) at concentrations varying from 10^−7% to 10^−4%, representing lycopene concentrations ranging from 6×10^−9% to 6×10^−6%.
# Assaying of the CAT was carried out using a “CAT-Elisa” kit marketed by Boehringer, according to the supplier's instructions.
# A “base level” for the expression of the CAT was measured in cells which had neither received PMA nor were treated with the test product.
# The results of the test, reported in the following Table, are expressed with respect to the base level (100%) as percentage of inhibition of the expression of the CAT gene.
compound,measurement,value
CC(C)=CCC/C(C)=C/C=C/C(C)=C/C=C/C(C)=C/C=C/C=C(C)/C=C/C=C(C)/C=C/C=C(\C)CCC=C(C)C [lycopene],effect on the synthesis of collagenase 1 by inhibition of the activity of its promoter,inhibitory effect
